Measured values as given in patent US20220000111A1, “METHODS OF INCREASING ALMOND YIELD” (Valent U.S.A. LLC, priority 2020, published 2022).

Experiments:
Format in all cases: in vivo
almond trees [1] = assay: Example 3: foliar AVG-HCl application at full bloom or after, nonpareil and carmel almonds; settings: for % Kernel Doubling / Nutmeat Yield / Nuts/Tree: 124 g/Ha
Method: 2 sets of AVG applications were performed on 2 varieties of almonds, nonpareil and […]. For the two sets of applications performed AVG-HCl was applied to almond trees either at full bloom or after full bloom, specifically 15, 22, 26, 32, 36 or 38 DAFB.

almond trees [2] = assay: Example 2: foliar AVG-HCl application at full bloom or after, nonpareil and carmel almonds; settings: for % Kernel Doubling / Nutmeat Yield / Nuts/Tree: 124 g/Ha
Method: 2 sets of AVG applications were performed on 2 varieties of almonds, nonpareil and […]. For the two sets of applications performed AVG-HCl was applied to almond trees either at full bloom or after full bloom, specifically at 22, 26, 29 or 33 days after full bloom (“DAFB”).

almond trees [3] = assay: Example 1: foliar AVG-HCl application to almond trees, 2018-2019, nutmeat yield and kernel doubling at harvest; settings: for percentage of shells harvested that contained two nut kernels, Average / yield at harvest of almond nutmeat, Average: average of trials
Method: […] of AVG applications were performed over a 2-year period. Each set of applications included a set of untreated control (“UTC”) trees. For the two sets of applications performed during the 2018 calendar year AVG-HCl was applied to almond trees either between 10% and full bloom (i.e. bloom) or between 6-7 weeks following full bloom (i.e. post-bloom). For the three sets of applications performed during the 2019 calendar year an additional application was performed as follows: 3-4 weeks post-bloom in combination with 6-7 weeks post-bloom.

almond trees [4] = assay: Example 4: foliar AVG-HCl application to nonpareil almonds at Newman and Sutter, 2020; settings: for percentage of shells harvested that contained two nut kernels / yield at harvest of almond nutmeat: nonpareil, 124 g/Ha
Method: 2 sets of AVG applications were performed on nonpareil almonds at Newman, Calif. and Sutter, Calif. in 2020. Each set of applications included a set of untreated control (“UTC”) trees. AVG-HCl was applied to almond trees either at 50% bloom (i.e. bloom), shuck split, or 7 days following shuck split.

[5] = 3-4 weeks Post-bloom & 6-7 weeks Post-bloom, 2 apps, 62 g/Ha each
[6] = 3-4 weeks Post-bloom & 6-7 weeks Post-bloom, 2 apps, 62 g/Ha each, trial 2019-1
[7] = 3-4 weeks Post-bloom & 6-7 weeks Post-bloom, 2 apps, 62 g/Ha each, trial 2019-2
[8] = 3-4 weeks Post-bloom & 6-7 weeks Post-bloom, 2 apps, 62 g/Ha each, trial 2019-3
[9] = 6-7 weeks Post-bloom, 1 app, 124 g/Ha
[10] = 6-7 weeks Post-bloom, 1 app, 124 g/Ha, trial 2018-1 (second column)
[11] = 6-7 weeks Post-bloom, 1 app, 124 g/Ha, trial 2019-1
[12] = 6-7 weeks Post-bloom, 1 app, 124 g/Ha, trial 2019-2
[13] = 6-7 weeks Post-bloom, 1 app, 124 g/Ha, trial 2019-3
[14] = Bloom, 1 app, 124 g/Ha, trial 2018-1 (second column)
[15] = Bloom, 1 app, 124 g/Ha, trial 2019-1
[16] = Bloom, 1 app, 124 g/Ha, trial 2019-2
[17] = Bloom, 1 app, 124 g/Ha, trial 2019-3
[18] = Newman, 7-days post shuck split
[19] = Sutter, 7-days post shuck split

## NCCO/C=C/[C@H](N)C(=O)O (stereo in doubt) [AVG, [S]-trans-2-amino-4-(2-aminoethoxy)-3-butenoic acid]
Almond trees [1]; application during bloom or following full bloom, nonpareil and carmel (Tables 5 and 6)
  nutmeat yield, in words: increases nutmeat yield
Almond trees [1]; application during bloom, nonpareil and carmel (Tables 5 and 6)
  kernel doubling, in words: statistically significant increase in kernel doubling
Almond trees [1]; application post-bloom, nonpareil and carmel (Tables 5 and 6)
  kernel doubling, in words: did not result in a statistically significant increase in kernel doubling
Almond trees [2]; application during bloom or following full bloom, nonpareil and carmel (Tables 3 and 4)
  nutmeat yield, in words: increases nutmeat yield
Almond trees [2]; application during bloom, nonpareil and carmel (Tables 3 and 4)
  kernel doubling, in words: statistically significant increase in kernel doubling
Almond trees [2]; application post-bloom, nonpareil and carmel (Tables 3 and 4)
  kernel doubling, in words: did not result in a statistically significant increase in kernel doubling
Almond trees [3]; application during bloom (Table 2)
  kernel doubling, in words: statistically significant increase in kernel doubling
Almond trees [3]; application during bloom, versus untreated control (Table 1)
  nutmeat yield, in words: increases nutmeat yield over untreated control
Almond trees [3]; application post-bloom (Table 2)
  kernel doubling, in words: did not result in a statistically significant increase in kernel doubling
Almond trees [3]; application post-bloom, versus bloom treatment (Table 1)
  nutmeat yield, in words: greater increase in nutmeat yield than that obtained when treating during bloom
Almond trees [4]; application during bloom, versus untreated control (Table 7)
  nutmeat yield, in words: increases nutmeat yield over untreated control
Almond trees [4]; application during bloom, Sutter, Calif. trial (Table 8)
  kernel doubling, in words: statistically significant increase in kernel doubling
Almond trees [4]; application post-bloom (Table 8)
  kernel doubling, in words: did not result in a statistically significant increase in kernel doubling
Almond trees [4]; application post-bloom, versus bloom treatment (Table 7)
  nutmeat yield, in words: greater increase in nutmeat yield than that obtained when treating during bloom

## Cl.NCCO/C=C/[C@H](N)C(=O)O [AVG-HCl]
Almond trees [1]; carmel, 15 DAFB
  % Kernel Doubling: 0.4 b %
  Nutmeat Yield: 6.00 kg/tree
  Nuts/Tree: 7271 nuts per tree
Almond trees [1]; carmel, 22 DAFB
  % Kernel Doubling: 1.4 b %
  Nutmeat Yield: 5.40 kg/tree
  Nuts/Tree: 7427 nuts per tree
Almond trees [1]; carmel, 32 DAFB
  % Kernel Doubling: 0.6 b %
  Nutmeat Yield: 5.30 kg/tree
  Nuts/Tree: 6972 nuts per tree
Almond trees [1]; carmel, 38 DAFB
  % Kernel Doubling: 1 b %
  Nutmeat Yield: 7.00 kg/tree
  Nuts/Tree: 8875 nuts per tree
Almond trees [1]; carmel, Full Bloom
  % Kernel Doubling: 8.4 a %
  Nutmeat Yield: 6.10 kg/tree
  Nuts/Tree: 7097 nuts per tree
Almond trees [1]; nonpareil, 26 DAFB
  % Kernel Doubling: 0.8 b %
  Nutmeat Yield: 5.9 kg/tree
  Nuts/Tree: 7636.8 nuts per tree
Almond trees [1]; nonpareil, 36 DAFB
  % Kernel Doubling: 0.6 c %
  Nutmeat Yield: 6 kg/tree
  Nuts/Tree: 7789.8 nuts per tree
Almond trees [1]; nonpareil, Full Bloom
  % Kernel Doubling: 2.0 a %
  Nutmeat Yield: 4.3 kg/tree
  Nuts/Tree: 5251.6 nuts per tree
Almond trees [2]; carmel, 22 DAFB
  % Kernel Doubling: 5.6 bc %
  Nutmeat Yield: 7.94 kg/tree
  Nuts/Tree: 8499 b nuts per tree
Almond trees [2]; carmel, 26 DAFB
  % Kernel Doubling: 3.7 c %
  Nutmeat Yield: 8.50 kg/tree
  Nuts/Tree: 9676 a nuts per tree
Almond trees [2]; carmel, Full Bloom
  % Kernel Doubling: 7.6 a %
  Nutmeat Yield: 7.04 kg/tree
  Nuts/Tree: 7039 b nuts per tree
Almond trees [2]; nonpareil, 29 DAFB
  % Kernel Doubling: 1.4 b %
  Nutmeat Yield: 8.64 a kg/tree
  Nuts/Tree: 8435 a nuts per tree
Almond trees [2]; nonpareil, 33 DAFB
  % Kernel Doubling: 0.4 b %
  Nutmeat Yield: 7.89 ab kg/tree
  Nuts/Tree: 8350 a nuts per tree
Almond trees [2]; nonpareil, Full Bloom
  % Kernel Doubling: 3.8 a %
  Nutmeat Yield: 8.03 ab kg/tree
  Nuts/Tree: 8153 ab nuts per tree
Almond trees [3]; [5]
  percentage of shells harvested that contained two nut kernels, Average: 1.55 b %
  yield at harvest of almond nutmeat, Average: 1229 a kilograms per hectare
Almond trees [3]; [6]
  percentage of shells harvested that contained two nut kernels: 1.3 b %
  yield at harvest of almond nutmeat: 1164 kilograms per hectare
Almond trees [3]; [7]
  percentage of shells harvested that contained two nut kernels: 1.5 abc %
  yield at harvest of almond nutmeat: 1698 a kilograms per hectare
Almond trees [3]; [8]
  percentage of shells harvested that contained two nut kernels: 1.9 b %
  yield at harvest of almond nutmeat: 825 b kilograms per hectare
Almond trees [3]; [9]
  percentage of shells harvested that contained two nut kernels, Average: 2.11 b %
  yield at harvest of almond nutmeat, Average: 1033 ab kilograms per hectare
Almond trees [3]; 6-7 weeks Post-bloom, 1 app, 124 g/Ha, trial 2018-1 (first column)
  yield at harvest of almond nutmeat: 721 kilograms per hectare
Almond trees [3]; [10]
  percentage of shells harvested that contained two nut kernels: 6.6 b %
  yield at harvest of almond nutmeat: 1345 a kilograms per hectare
Almond trees [3]; [11]
  percentage of shells harvested that contained two nut kernels: 2.5 ab %
  yield at harvest of almond nutmeat: 1168 kilograms per hectare
Almond trees [3]; [12]
  percentage of shells harvested that contained two nut kernels: 1.08 bc %
  yield at harvest of almond nutmeat: 1220 b kilograms per hectare
Almond trees [3]; [13]
  percentage of shells harvested that contained two nut kernels: 0.7 bc %
  yield at harvest of almond nutmeat: 713 bc kilograms per hectare
Almond trees [3]; Bloom, 1 app, 124 g/Ha
  percentage of shells harvested that contained two nut kernels, Average: 8.62 a %
  yield at harvest of almond nutmeat, Average: 1068 ab kilograms per hectare
Almond trees [3]; Bloom, 1 app, 124 g/Ha, trial 2018-1 (first column)
  yield at harvest of almond nutmeat: 712 kilograms per hectare
Almond trees [3]; [14]
  percentage of shells harvested that contained two nut kernels: 27.7 a %
  yield at harvest of almond nutmeat: 1148 b kilograms per hectare
Almond trees [3]; [15]
  percentage of shells harvested that contained two nut kernels: 3.5 a %
  yield at harvest of almond nutmeat: 1204 kilograms per hectare
Almond trees [3]; [16]
  percentage of shells harvested that contained two nut kernels: 2.92 ab %
  yield at harvest of almond nutmeat: 1198 b kilograms per hectare
Almond trees [3]; [17]
  percentage of shells harvested that contained two nut kernels: 15.9 a %
  yield at harvest of almond nutmeat: 1031 a kilograms per hectare
Almond trees [4]; [18]
  percentage of shells harvested that contained two nut kernels: 3.0%
  yield at harvest of almond nutmeat: 3726 a kilograms per hectare
Almond trees [4]; Newman, Bloom (50% bloom)
  percentage of shells harvested that contained two nut kernels: 2.7%
  yield at harvest of almond nutmeat: 3188 c kilograms per hectare
Almond trees [4]; Newman, Shuck split
  percentage of shells harvested that contained two nut kernels: 2.2%
  yield at harvest of almond nutmeat: 3369 b kilograms per hectare
Almond trees [4]; [19]
  percentage of shells harvested that contained two nut kernels: 0.5%
  yield at harvest of almond nutmeat: 3558 ab kilograms per hectare
Almond trees [4]; Sutter, Bloom (50% bloom)
  percentage of shells harvested that contained two nut kernels: 1.2%
  yield at harvest of almond nutmeat: 3658 a kilograms per hectare
Almond trees [4]; Sutter, Shuck split
  percentage of shells harvested that contained two nut kernels: 0.7%
  yield at harvest of almond nutmeat: 3758 a kilograms per hectare
